Data as given in patent US5516936A, “Inhibitors of kynureninase” (University of Georgia Research Foundation, Inc., priority 1993, dated 1996).
Entries after “also recorded” stand apart in the source; their conditions may differ. Where two headings read alike, the source gives them in different places.

Key:
[1] = system: cystsine conjugate β-lyase; conditions: cited from earlier work
cystsine lyase = conditions: cited from earlier work
kynureninase [2] = conditions: Takeuchi et al. (1980); cited from earlier work
Kynureninase [3] = target: T1, Kynureninase (Pseudomonas fluorescens, UniProt P83788); assay: Competitive inhibition of kynureninase by S-aryl cysteines and S-aryl cysteine sulfones; format: biochemical; conditions: Table 1; competitive inhibition vs L-kynurenine, pH 7.8, 25° C.; footnote 1: 0.07 is an upper limit; read-out: Ki
T1 construct: Bacterial kynureninase was prepared from cells of Pseudomonas fluorescens; endogenous in cells; partially purified by DEAE-cellulose and ammonium sulfate
T1 sequence (P83788 1-416): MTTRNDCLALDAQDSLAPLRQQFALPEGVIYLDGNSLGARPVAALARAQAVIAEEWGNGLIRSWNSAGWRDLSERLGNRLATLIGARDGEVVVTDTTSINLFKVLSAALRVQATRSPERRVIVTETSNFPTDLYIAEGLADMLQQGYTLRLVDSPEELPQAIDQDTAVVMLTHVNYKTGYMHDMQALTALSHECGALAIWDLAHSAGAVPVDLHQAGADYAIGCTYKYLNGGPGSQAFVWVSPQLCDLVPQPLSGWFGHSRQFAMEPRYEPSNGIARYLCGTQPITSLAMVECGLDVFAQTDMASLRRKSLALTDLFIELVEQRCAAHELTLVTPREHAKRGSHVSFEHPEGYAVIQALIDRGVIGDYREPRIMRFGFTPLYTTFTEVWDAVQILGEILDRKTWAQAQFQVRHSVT
Protocol: (§1) Bacterial kynureninase was prepared from cells of Pseudomonas fluorescens (ATCC 11250, for example) essentially as described by .Hayaishi and Stanier (1952) J. Biol. Chem. 195:735-740. Cells were grown on a minimal medium containing 0.1% L-tryptophan as the sole carbon and nitrogen source.
(§2) From 100 1 of medium, grown for 18 h at 30° C. 230 g of wet cell paste was obtained. The cells were suspended in 1 of 0.01M potassiumphosphate, pH 7.0, and disrupted by 2 passages through a Manton-Gaulin homogenizer. After centrifugation of the cell extract for 1 h at 10000 g, the enzyme was partially purified by ion-exchange chromatography on DEAE-cellulose and ammonium sulfate precipitation.
Kynureninase activity was measured at 25° C. by following the decrease in absorbance at 360 nm (ε=-4500M^-1 cm^-1). A typical assay mixture contained 0.4 mM L-kynurenine in 0.04M potassium phosphate, pH 7.8, containing 40 μM pyridoxal-5'-phosphate, at 25° C. The reactions of S-aryl cysteines and S-aryl cysteine sulfones with kynureninase were performed using a spectrophotometric coupled assay with lactate dehydrogenase and NADH, by monitoring a decrease in absorbance due to pyruvate formation. A typical assay mixture contained 30 μl lactate dehydrogenase solution (2 mg/ml), 0.1 mM NADH, 40 μM pyridoxal-5'-phosphate, 0.04M tris.HCl buffer, pH 7.8, with varying concentrations of the compounds. The competitive inhibition of these compounds was measured by variation of L-kynurenine concentrations at several fixed values of the inhibitor. Km and Vmax values were calculated by fitting of initial rate data to the Michaelis-Menten equation with ENZFITTER (Elsevier) on a Z-286 personal computer. KI values were determined from the equation:
v=Vmax[S]/ (Km (1+[I]/Ki)+[S]

bacterial kynureninase [4] = conditions: Kishore (1984), cited from earlier work
rat renal C-S lyase = conditions: kidney slice methodology; cited from earlier work
bacterial kynureninase [5] = conditions: Tanizawa and Soda (1979); cited from earlier work
Kynureninase [6] = target: T1, Kynureninase; assay: Inhibition of bacterial kynureninase by dihydrokynurenine; format: biochemical; conditions: for inhibition of reaction with L-kynurenine (in words): bacterial kynureninase; for Ki value (comparison in words): compared between dihydrokynurenine diastereomers
Protocol: As an extension of these mechanistic studies, the reactivities of dihydrokynurenine diastereomers were examined. […] This increased affinity of (αS,γS)-dihydrokynurenine is characteristic of mechanism-based, or "transition-state analogue" inhibitors.
as §1, §2
Inhibition of kynureninase by dihydrokynurenine was measured by including the potential inhibitor in the enzyme assay mixture (see Example 1 and Tanzawa and Soda (1979) supra) and determining the apparent Km for L-kynurenine (the preferred substrate of bacterial kynurenine) in the absence and presence of the potential inhibitor. Ki values were then calculated using the standard equation: […]
Inhibition of kynureninase by the (αS,γR)- and (αS,γS)-diastereomers of dihydrokynurenine was examined and Ki 's were determined. […] The Ki value for the […] was lower than for the (αS,γR)-diastereomer.

Kynureninase [7] = target: T1, Kynureninase; assay: Reactivity of dihydrokynurenine and L-kynurenine with bacterial kynureninase; format: biochemical; conditions: pH 8.0, 25°; for reactivity with kynureninase (in words): o-aminobenzaldehyde formation at 360 nm
Protocol: as §1
as §2, with “230 g of wet cell paste was obtained.” left out
The reactivity of the two dihydrokynurenines with kynureninase in 0.1M potassium phosphate buffer, pH 8.0, at 25° was examined. Reaction was followed by the appearance of o-aminobenzaldehyde, as determined spectrophotometrically by the increase in absorbance at 360 nm (See Tanizawa and Soda (1979) Biochem. (Tokyo) 86:1199-1209, which is incorporated by reference herein).

rat liver kynureninase [8] = target: T2, rat liver kynureninase (Rattus norvegicus, UniProt P70712); assay: Inhibition of rat liver kynureninase (cysteine conjugate β-lyase activity with S-(2-benzothiazolyl)cysteine); format: biochemical; conditions: S-(2-benzothiazolyl)cysteine as substrate
T2 construct: host or cells: rat liver
T2 sequence (P70712 1-464): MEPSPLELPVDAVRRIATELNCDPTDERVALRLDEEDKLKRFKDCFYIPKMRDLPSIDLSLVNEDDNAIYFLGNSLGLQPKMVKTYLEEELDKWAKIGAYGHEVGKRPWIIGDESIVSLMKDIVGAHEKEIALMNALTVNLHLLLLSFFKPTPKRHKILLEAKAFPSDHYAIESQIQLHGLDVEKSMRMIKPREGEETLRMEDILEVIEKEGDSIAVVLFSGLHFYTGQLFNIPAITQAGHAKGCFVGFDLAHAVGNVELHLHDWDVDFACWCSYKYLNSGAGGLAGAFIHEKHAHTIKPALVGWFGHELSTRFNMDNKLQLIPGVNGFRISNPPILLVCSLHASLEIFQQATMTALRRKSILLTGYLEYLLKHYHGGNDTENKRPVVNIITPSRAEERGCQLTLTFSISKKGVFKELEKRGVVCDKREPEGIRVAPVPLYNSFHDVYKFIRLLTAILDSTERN
Protocol: Inhibition of mammalian kynureninase can be measured using several different assays for enzyme activity. Rat liver kynureninase is obtained from homogenization of rat liver, followed by precipitation with (NH4)2 SO4, as described by Stevens, J. L., J. Biol. Chem. (1985) 260:7945-7950, which is incorporated by reference herein. The activity of rat liver kynureninase was assessed by measurement of the cysteine conjugate β-lyase activity, as described by Stevens (supra), with S-(2-benzothiazolyl)cysteine, a nonphysiological chromophoric substrate. Inhibition of kynureninase by the dihydrokynurenine diastereomers was assessed with respect to reaction with that substrate.

rat liver kynureninase [9] = target: T2, rat liver kynureninase; conditions: cited from earlier work
kynureninase [10] = conditions: cited from earlier work
[11] = substrate: Nc1ccccc1C(=O)C[C@H](N)C(=O)O; assay: Reactivity of dihydrokynurenine and L-kynurenine with bacterial kynureninase; format: biochemical, Pseudomonas fluorescens; conditions: other: L-kynurenine, present work, 30.0 °C

## NOCC(=O)O [aminooxyacetic acid]
[1]
  inhibition of β-lyase (in words): inhibitor of the β-lyase
Cystsine lyase
  inhibition of cystsine lyase (in words): most inhibitory derivative tested

## Nc1c(O)cccc1C(=O)O [3-hydroxyanthranilate, 3-hydroxyanthranilic acid]
Kynureninase [2]
  inhibition of kynureninase (in words): inhibit the enzyme

## N[C@@H](CSc1ccccc1[N+](=O)[O-])C(=O)O [S-(2-nitrophenyl)-L-cysteine]
Kynureninase [3]
  Ki: 100 µM
Bacterial kynureninase [4]
  Ki: 100 µM
  inactivation of kynureninase (in words): inactivates kynureninase; also recorded: most efficient suicide substrate at low concentrations; also recorded: suicide inhibitor of kynureninase
  reaction with kynureninase (in words): react with kynureninase to give pyruvate and ammonia
Bacterial kynureninase [4]; listed as S-(2-nitrophenyl)-L-cystsine
  inactivation of kynureninase (in words): inactivated kynureninase
Rat renal C-S lyase
  inhibition of C-S lyase (in words): inhibit

## CC(=O)N[C@@H](CSc1c([N+](=O)[O-])cccc1[N+](=O)[O-])C(=O)O [N-acetyl-S-(2,6-dinitrophenyl)-L-cysteine]
Rat renal C-S lyase
  inhibition of C-S lyase (in words): inhibit

## Nc1ccccc1C(=O)O [anthranilic acid]
Bacterial kynureninase [5]
  inhibition of bacterial kynureninase (in words): inhibitors
Kynureninase [2]
  inhibition of kynureninase (in words): inhibit the enzyme

## NO [H2 NOH]
Cystsine lyase
  inhibition of cystsine lyase (in words): significantly inhibited

## N[C@@H](CSCc1ccccc1)C(=O)O [S-benzyl-L-cysteine]
[1]
  β-lyase-mediated metabolism (in words): cleaved to give pyruvate

## CC(=O)N[C@@H](CSc1ccc([N+](=O)[O-])cc1Cl)C(=O)O [N-acetyl-S-(2-chloro-4-nitrophenyl)-L-cysteine]
Rat renal C-S lyase
  inhibition of C-S lyase (in words): inhibit

## Nc1ccccc1[C@H](O)C[C@H](N)C(=O)O [(αS,γR)-dihydrokynurenine, (αS;γR)-α,2-diamino-γ-hydroxybenzenebutanoic acid]
Kynureninase [6]; listed as (αS,γR)-diastereomer
  inhibition of reaction with L-kynurenine (in words): strongly inhibited; also recorded: competitive inhibitors
Kynureninase [6]
  Ki value (comparison in words): lower
Kynureninase [6]; competitive with respect to L-kynurenine
  Ki: 5 µM
Kynureninase [7]; 0.1M potassium phosphate buffer
  rate of reaction relative to L-kynurenine: about 5%
Kynureninase [7]
  reactivity with kynureninase (in words): reacted slowly with kynureninase
Kynureninase [7]; listed as (αS,γR)-Dihydrokynurenine
  reactivity with kynureninase (in words): slow substrate
Rat liver kynureninase [8]
  inhibition of rat liver kynureninase (in words): inhibit the reaction of rat liver kynureninase

## Nc1ccccc1[C@@H](O)C[C@H](N)C(=O)O [(αS,γS)-dihydrokynurenine, (αS,γS)-α,2-diamino-γ-hydroxybenzenebutanoic acid]
Kynureninase [6]
  binding relative to L-kynurenine (in words): binds about more tightly than does L-kynurenine
  inhibition of reaction with L-kynurenine (in words): competitive inhibitor of the enzyme
  Ki value (comparison in words): lower
Kynureninase [6]; listed as (αS,γS)-diastereomer
  inhibition of reaction with L-kynurenine (in words): strongly inhibited; also recorded: competitive inhibitors
Kynureninase [7]
  reactivity with kynureninase (in words): not a substrate for the kynureninase
Kynureninase [7]; listed as (αS,γS) diastereomer
  reactivity with kynureninase (in words): unreactive
Kynureninase [7]; listed as (αS,γS)-diastereomer
  reactivity with kynureninase (in words): No significant reaction
Rat liver kynureninase [8]; listed as (αS,γS) diastereomer
  inhibition of rat liver kynureninase (in words): stronger competitive inhibitor
Rat liver kynureninase [8]; listed as (αS,δS)
  inhibition of rat liver kynureninase (in words): inhibit the reaction of rat liver kynureninase
Rat liver kynureninase [8]; rat liver kynureninase
  Ki: ~690 µM

## N[C@@H](CSc1nc2ccccc2s1)C(=O)O [S-2-(benzothiazolyl)-L-cysteine]
Rat liver kynureninase [9]
  cleavage by rat liver kynureninase (in words): cleavage of S-2-(benzothiazolyl)-L-cysteine to give 2-mercaptobenzothiazole, pyruvate and ammonia

## NC(C(=O)O)C(F)(F)C(=O)c1ccccc1 (stereo not drawn) [2,2-difluoro-α-benzoyl alanine, α-amino-β,β-difluoro-γ-oxobenzene butanoic acid]
Kynureninase [10]
  inhibition of kynureninase (in words): competitive inhibitor of kynureninase

B1: Kynureninase (Pseudomonas fluorescens) (protein)
chain: MTTRNDCLALDAQDSLAPLRQQFALPEGVIYLDGNSLGARPVAALARAQAVIAEEWGNGLIRSWNSAGWRDLSERLGNRLATLIGARDGEVVVTDTTSINLFKVLSAALRVQATRSPERRVIVTETSNFPTDLYIAEGLADMLQQGYTLRLVDSPEELPQAIDQDTAVVMLTHVNYKTGYMHDMQALTALSHECGALAIWDLAHSAGAVPVDLHQAGADYAIGCTYKYLNGGPGSQAFVWVSPQLCDLVPQPLSGWFGHSRQFAMEPRYEPSNGIARYLCGTQPITSLAMVECGLDVFAQTDMASLRRKSLALTDLFIELVEQRCAAHELTLVTPREHAKRGSHVSFEHPEGYAVIQALIDRGVIGDYREPRIMRFGFTPLYTTFTEVWDAVQILGEILDRKTWAQAQFQVRHSVT
notes: Bacterial kynureninase was prepared from cells of Pseudomonas fluorescens; endogenous in cells; partially purified by DEAE-cellulose and ammonium sulfate
[11]
  Km: 25 µM
